The values below come from patent publication US12478617B2, “Lipidated peptide inhibitors of interleukin-23 receptor” (JANSSEN BIOTECH, INC., priority 2021, dated 2025).

Starred links: 1 amine or outer side, 2 acyl side, 3 side chain; linkers in the order of their positions; H or OH if unused. Positions of bridges follow the written chain, without caps; N, C: chain ends. Non-standard residues stand in square brackets, D forms with d. Residues, ends and D or L forms follow the SMILES beside them. Groups on a side chain read outwards from the residue. *: point of attachment. Decanoyl(10-O(3-COOH-Ph)) = O=C(O)c1cccc(OCCCCCCCCCC(=O)*)c1; Trp(7-Me) = Cc1cccc2c(C[C@H](N)C(=O)O)c[nH]c12; C20 diacid = O=C(O)CCCCCCCCCCCCCCCCCCC(=O)*; C18 diacid = O=C(O)CCCCCCCCCCCCCCCCC(=O)*; γGlu = O=C(O)[C@H](CCC(=O)[*:2])N[*:1]; 2Nal = N[C@@H](Cc1ccc2ccccc2c1)C(=O)O; AEF = NCCOc1ccc(C[C@H](N)C(=O)O)cc1; Stearoyl = CCCCCCCCCCCCCCCCCC(=O)*; Palmitoyl = CCCCCCCCCCCCCCCC(=O)*; 3Pal = N[C@@H](Cc1cccnc1)C(=O)O; Pen = CC(C)(S)[C@H](N)C(=O)O; Thp = NC1(C(=O)O)CCOCC1; AEEA = NCCOCCOCC(=O)O; Sar = CNCC(=O)O

The target in the experiment is T1, IL-23R (Homo sapiens, UniProt Q5VWK5).
T1 construct: HEK293 cells containing IL-23R, IL-12RP31 and a firefly luciferase reporter gene driven by a STAT-inducible promoter (Promega); host or cells: HEK293
T1 sequence (Q5VWK5 24-629): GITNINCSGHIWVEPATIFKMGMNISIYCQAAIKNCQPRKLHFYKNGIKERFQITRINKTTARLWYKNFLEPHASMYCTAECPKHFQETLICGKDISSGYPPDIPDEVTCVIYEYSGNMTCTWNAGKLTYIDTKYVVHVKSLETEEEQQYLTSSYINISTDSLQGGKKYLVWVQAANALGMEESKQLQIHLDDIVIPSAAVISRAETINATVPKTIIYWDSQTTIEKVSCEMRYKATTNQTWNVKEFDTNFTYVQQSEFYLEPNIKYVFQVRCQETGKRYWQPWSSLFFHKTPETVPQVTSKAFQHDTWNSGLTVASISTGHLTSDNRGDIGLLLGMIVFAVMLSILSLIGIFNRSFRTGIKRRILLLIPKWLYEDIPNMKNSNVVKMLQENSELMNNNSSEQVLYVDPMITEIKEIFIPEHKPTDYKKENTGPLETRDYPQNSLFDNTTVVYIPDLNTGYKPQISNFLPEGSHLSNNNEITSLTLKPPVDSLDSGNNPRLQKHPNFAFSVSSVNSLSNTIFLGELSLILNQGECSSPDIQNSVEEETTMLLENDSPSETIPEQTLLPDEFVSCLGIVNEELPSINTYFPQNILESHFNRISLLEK
Put plainly: IL23R Reporter Assay. Type of experiment: cell-based. The method in brief:
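Reporter cells read out IL-23-driven STAT3 activation; compounds were serially diluted in DMSO. After 5 h at 37 °C, 5% CO2, cells were brought to 20 °C and luminescence was measured with BioGlo reagent.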
In turn, `CCCCCCCCCCCCCCCCCC(=O)N[C@@H](CCC(=O)NCCCC[C@@H](NC(C)=O)C(=O)N[C@@H]1C(=O)N[C@@H](CC(N)=O)C(=O)N[C@@H]([C@@H](C)O)C(=O)N[C@@H](Cc2c[nH]c3c(C)cccc23)C(=O)N[C@@H](CCCCNC(C)=O)C(=O)N[C@H](C(=O)N[C@@H](Cc2ccc(OCCN)cc2)C(=O)N[C@@H](Cc2ccc3ccccc3c2)C(=O)NC2(C(=O)N[C@@H](CCCCNC(C)=O)C(=O)N[C@@H](CC(N)=O)C(=O)N[C@@H](Cc3cccnc3)C(=O)N(C)CC(N)=O)CCOCC2)C(C)(C)SSC1(C)C)C(=O)O` [Example 68, MeCO-k(gEC18)-Pen*-N-T-7MeW-K(Ac)-Pen*-AEF-2Nal-THP-K(Ac)-N-3Pya-Sar-CONH2] (Ac-[dK]([γGlu-Stearoyl])[Pen]NT[Trp(7-Me)]K(Ac)[Pen][AEF][2Nal][Thp]K(Ac)N[3Pal][Sar]-NH2; disulfide 2-7) yielded an IC50 of 0.037 nM.

In the case of `CCCCCCCCCCCCCCCC(=O)N[C@@H](CCC(=O)NCCCC[C@@H]1NC(=O)[C@@H](NC(=O)[C@@H](CCCNC(=N)N)NC(C)=O)C(C)(C)SSC(C)(C)[C@@H](C(=O)N[C@@H](Cc2ccc(OCCN)cc2)C(=O)N[C@@H](Cc2ccc3ccccc3c2)C(=O)NC2(C(=O)N[C@@H](CCCCNC(C)=O)C(=O)N[C@@H](CC(N)=O)C(=O)N[C@@H](Cc3cccnc3)C(=O)N(C)CC(N)=O)CCOCC2)NC(=O)[C@H](CCCCNC(C)=O)NC(=O)[C@H](Cc2c[nH]c3c(C)cccc23)NC(=O)[C@H]([C@@H](C)O)NC1=O)C(=O)O` [Example 69, MeCO-r-Pen*-K(gEC16)-T-7MeW-K(Ac)-Pen*-AEF-2Nal-THP-K(Ac)-N-3Pya-Sar-CONH2] (Ac-[dR][Pen]K([γGlu-Palmitoyl])T[Trp(7-Me)]K(Ac)[Pen][AEF][2Nal][Thp]K(Ac)N[3Pal][Sar]-NH2; disulfide 2-7), the IC50 is 0.13 nM.

Turning to `CCCCCCCCCCCCCCCC(=O)N[C@@H](CCC(=O)NCCCC[C@H](NC(=O)C1(NC(=O)[C@H](Cc2ccc3ccccc3c2)NC(=O)[C@H](Cc2ccc(OCCN)cc2)NC(=O)[C@H]2NC(=O)[C@H](CCCCNC(C)=O)NC(=O)[C@H](Cc3c[nH]c4c(C)cccc34)NC(=O)[C@H]([C@@H](C)O)NC(=O)[C@H](CC(N)=O)NC(=O)[C@@H](NC(C)=O)C(C)(C)SSC2(C)C)CCOCC1)C(=O)N[C@@H](CC(N)=O)C(=O)N[C@@H](Cc1cccnc1)C(=O)N(C)CC(N)=O)C(=O)O` [Example 75, MeCO-Pen*-N-T-7MeW-K(Ac)-Pen*-AEF-2Nal-THP-K(gEC16)-N-3Pya-Sar-CONH2] (Ac-[Pen]NT[Trp(7-Me)]K(Ac)[Pen][AEF][2Nal][Thp]K([γGlu-Palmitoyl])N[3Pal][Sar]-NH2; disulfide 1-6), the midpoint of inhibition, the IC50, lay at 0.096 nM.

In turn, `CCCCCCCCCCCCCCCC(=O)N[C@@H](CCC(=O)NCCOCCOCC(=O)NCCOCCOCC(=O)NCCCC[C@@H]1NC(=O)[C@@H](NC(C)=O)C(C)(C)SSC(C)(C)[C@@H](C(=O)N[C@@H](Cc2ccc(OCCN)cc2)C(=O)N[C@@H](Cc2ccc3ccccc3c2)C(=O)NC2(C(=O)N[C@@H](CCCCNC(C)=O)C(=O)N[C@@H](CC(N)=O)C(=O)N[C@@H](Cc3cccnc3)C(=O)N(C)CC(N)=O)CCOCC2)NC(=O)[C@H](CCCCNC(C)=O)NC(=O)[C@H](Cc2c[nH]c3c(C)cccc23)NC(=O)[C@H]([C@@H](C)O)NC1=O)C(=O)O` [Example 83, MeCO-Pen*-K(PEG2PEG2gEC16)-T-7MeW-K(Ac)-Pen*-AEF-2Nal-THP-K(Ac)-N-3Pya-Sar-CONH2] (Ac-[Pen]K([AEEA-AEEA-γGlu-Palmitoyl])T[Trp(7-Me)]K(Ac)[Pen][AEF][2Nal][Thp]K(Ac)N[3Pal][Sar]-NH2; disulfide 1-6) displayed an IC50 of 0.052 nM.

In turn, `CC(=O)NCCCC[C@H](NC(=O)C1(NC(=O)[C@H](Cc2ccc3ccccc3c2)NC(=O)[C@H](Cc2ccc(OCCN)cc2)NC(=O)[C@H]2NC(=O)[C@H](CCCCNC(=O)COCCOCCNC(=O)COCCOCCNC(=O)CC[C@H](NC(=O)CCCCCCCCCCCCCCCCC(=O)O)C(=O)O)NC(=O)[C@H](Cc3c[nH]c4c(C)cccc34)NC(=O)[C@H]([C@@H](C)O)NC(=O)[C@H](CC(N)=O)NC(=O)[C@@H](NC(=O)[C@@H](CCCNC(=N)N)NC(C)=O)C(C)(C)SSC2(C)C)CCOCC1)C(=O)N[C@@H](CC(N)=O)C(=O)N[C@@H](Cc1cccnc1)C(=O)N(C)CC(N)=O` [Example 88, MeCO-r-Pen*-N-T-7MeW-K(PEG2PEG2gEC18OH)-Pen*-AEF-2Nal-THP-K(Ac)-N-3Pya-Sar-CONH2] (Ac-[dR][Pen]NT[Trp(7-Me)]K([AEEA-AEEA-γGlu-C18 diacid])[Pen][AEF][2Nal][Thp]K(Ac)N[3Pal][Sar]-NH2; disulfide 2-7) showed an IC50 of 0.2 nM.

`CC(=O)NCCCC[C@@H]1NC(=O)[C@H](Cc2c[nH]c3c(C)cccc23)NC(=O)[C@H]([C@@H](C)O)NC(=O)[C@H](CC(N)=O)NC(=O)[C@@H](NC(C)=O)C(C)(C)SSC(C)(C)[C@@H](C(=O)N[C@@H](Cc2ccc(OCCN)cc2)C(=O)N[C@@H](Cc2ccc3ccccc3c2)C(=O)NC2(C(=O)N[C@@H](CCCCNC(=O)CC[C@H](NC(=O)CCCCCCCCCCCCCCCCCCC(=O)O)C(=O)O)C(=O)N[C@@H](CC(N)=O)C(=O)N[C@@H](Cc3cccnc3)C(=O)N(C)CC(N)=O)CCOCC2)NC1=O` [Example 89, MeCO-Pen*-N-T-7MeW-K(Ac)-Pen*-AEF-2Nal-THP-K(gEC20OH)-N-3Pya-Sar-CONH2] (Ac-[Pen]NT[Trp(7-Me)]K(Ac)[Pen][AEF][2Nal][Thp]K([γGlu-C20 diacid])N[3Pal][Sar]-NH2; disulfide 1-6) returned an IC50 of 0.34 nM.

For `CC(=O)NCCCC[C@@H]1NC(=O)[C@H](Cc2c[nH]c3c(C)cccc23)NC(=O)[C@H]([C@@H](C)O)NC(=O)[C@H](CCCCNC(=O)COCCOCCNC(=O)COCCOCCNC(=O)[C@@H]2CCCN2C(=O)CC[C@H](NC(=O)CCCCCCCCCCCCCCCCC(=O)O)C(=O)O)NC(=O)[C@@H](NC(=O)[C@@H](CCCNC(=N)N)NC(C)=O)C(C)(C)SSC(C)(C)[C@@H](C(=O)N[C@@H](Cc2ccc(OCCN)cc2)C(=O)N[C@@H](Cc2ccc3ccccc3c2)C(=O)NC2(C(=O)N[C@@H](CCCCNC(C)=O)C(=O)N[C@@H](CC(N)=O)C(=O)N[C@@H](Cc3cccnc3)C(=O)N(C)CC(N)=O)CCOCC2)NC1=O` [Example 95, MeCO-r-Pen*-K(PEG2PEG2PgEC18OH)-T-7MeW-K(Ac)-Pen*-AEF-2Nal-THP-K(Ac)-N-3Pya-Sar-CONH2] (Ac-[dR][Pen]K([AEEA-AEEA-Pro-γGlu-C18 diacid])T[Trp(7-Me)]K(Ac)[Pen][AEF][2Nal][Thp]K(Ac)N[3Pal][Sar]-NH2; disulfide 2-7), the IC50 came out at 0.14 nM.

Regarding `CC(=O)NCCCC[C@@H]1NC(=O)[C@H](Cc2c[nH]c3c(C)cccc23)NC(=O)[C@H]([C@@H](C)O)NC(=O)[C@H](CCCCNC(=O)COCCOCCNC(=O)COCCOCCNC(=O)[C@H]2CCCN2C(=O)CC[C@H](NC(=O)CCCCCCCCCCCCCCCCC(=O)O)C(=O)O)NC(=O)[C@@H](NC(=O)[C@@H](CCCNC(=N)N)NC(C)=O)C(C)(C)SSC(C)(C)[C@@H](C(=O)N[C@@H](Cc2ccc(OCCN)cc2)C(=O)N[C@@H](Cc2ccc3ccccc3c2)C(=O)NC2(C(=O)N[C@@H](CCCCNC(C)=O)C(=O)N[C@@H](CC(N)=O)C(=O)N[C@@H](Cc3cccnc3)C(=O)N(C)CC(N)=O)CCOCC2)NC1=O` [Example 96, MeCO-r-Pen*-K(PEG2PEG2pgEC18OH)-T-7MeW-K(Ac)-Pen*-AEF-2Nal-THP-K(Ac)-N-3Pya-Sar-CONH2] (Ac-[dR][Pen]K([AEEA-AEEA-dP-γGlu-C18 diacid])T[Trp(7-Me)]K(Ac)[Pen][AEF][2Nal][Thp]K(Ac)N[3Pal][Sar]-NH2; disulfide 2-7), the midpoint of inhibition, the IC50, lay at 0.13 nM.

For the compound `CC(=O)NCCCC[C@@H]1NC(=O)[C@H](Cc2c[nH]c3c(C)cccc23)NC(=O)[C@H]([C@@H](C)O)NC(=O)[C@H](CC(N)=O)NC(=O)[C@@H](NC(C)=O)C(C)(C)SSC(C)(C)[C@@H](C(=O)N[C@@H](Cc2ccc(OCCN)cc2)C(=O)N[C@@H](Cc2ccc3ccccc3c2)C(=O)NC2(C(=O)N[C@@H](CCCCNC(=O)COCCOCCNC(=O)COCCOCCNC(=O)CC[C@H](NC(=O)CCCCCCCCCOc3cccc(C(=O)O)c3)C(=O)O)C(=O)N[C@@H](CC(N)=O)C(=O)N[C@@H](Cc3cccnc3)C(=O)N(C)CC(N)=O)CCOCC2)NC1=O` [Example 97, MeCO-Pen*-N-T-7MeW-K(Ac)-Pen*-AEF-2Nal-THP-K(PEG2PEG2gEmXOH)-N-3Pya-Sar-CONH2] (Ac-[Pen]NT[Trp(7-Me)]K(Ac)[Pen][AEF][2Nal][Thp]K([AEEA-AEEA-γGlu-Decanoyl(10-O(3-COOH-Ph))])N[3Pal][Sar]-NH2; disulfide 1-6), the IC50 stood at 0.0082 nM.
